# Results from PubChem BioAssay (NCI).
#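 Values below derive from 48-hour exposures of cells grown in 96-well plates, with endpoints linearly interpolated between the two concentrations bracketing the appropriate inhibition level. GI50 = concentration required for 50% inhibition of growth. TGI is the concentration that stops growth completely.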
# Tested on: 786-0 renal
# Assay: inhibition of tumour cell growth, NCI panel, 48 h
Compound,TGI [µM],GI50 [µM]
CN(CC(=O)O)c1ncc2c(n1)-c1ccccc1SC2,> 100,
CC(=O)Nc1ccc(C(=O)NN2C(=O)CSC2c2ccc([N+](=O)[O-])cc2)cc1 (centres undefined),> 100,
CC(=O)c1ccc(NCc2cc(O)ccc2O)cc1,27.7,
CN(C(=O)C1=CCC2(CC1)OCCO2)c1ccccc1OS(=O)(=O)C(F)(F)F,> 100,
CC(C)(C)NC(NC(C)(C)C)=C(/C=C(/Cl)[N+](=O)[O-])[N+](=O)[O-],> 100,
O=C(Cc1ccc(/C=C/C(=O)c2ncc[nH]2)cc1)Nc1cc(F)c(F)c(F)c1,6.32,3.08

# Tested on: A498 renal
# Assay: inhibition of tumour cell growth, NCI panel, 48 h
Compound,TGI [µM],GI50 [µM]
CN(CC(=O)O)c1ncc2c(n1)-c1ccccc1SC2,> 100,
CC(=O)Nc1ccc(C(=O)NN2C(=O)CSC2c2ccc([N+](=O)[O-])cc2)cc1 (centres undefined),> 100,
CC(=O)c1ccc(NCc2cc(O)ccc2O)cc1,> 100,
CN(C(=O)C1=CCC2(CC1)OCCO2)c1ccccc1OS(=O)(=O)C(F)(F)F,> 100,
CC(C)(C)NC(NC(C)(C)C)=C(/C=C(/Cl)[N+](=O)[O-])[N+](=O)[O-],> 100,
O=C(Cc1ccc(/C=C/C(=O)c2ncc[nH]2)cc1)Nc1cc(F)c(F)c(F)c1,9.98,4.34

# Tested on: A549 NSCLC
# Assay: inhibition of tumour cell growth, NCI panel, 48 h
Compound,TGI [µM],GI50 [µM]
CN(CC(=O)O)c1ncc2c(n1)-c1ccccc1SC2,> 100,
CC(=O)Nc1ccc(C(=O)NN2C(=O)CSC2c2ccc([N+](=O)[O-])cc2)cc1 (centres undefined),> 100,
CN(C(=O)C1=CCC2(CC1)OCCO2)c1ccccc1OS(=O)(=O)C(F)(F)F,> 100,
CC(C)(C)NC(NC(C)(C)C)=C(/C=C(/Cl)[N+](=O)[O-])[N+](=O)[O-],95.3,
O=C(Cc1ccc(/C=C/C(=O)c2ncc[nH]2)cc1)Nc1cc(F)c(F)c(F)c1,17.8,4.13

# Tested on: ACHN renal
# Assay: inhibition of tumour cell growth, NCI panel, 48 h
Compound,TGI [µM],GI50 [µM]
CN(CC(=O)O)c1ncc2c(n1)-c1ccccc1SC2,> 100,
CC(=O)Nc1ccc(C(=O)NN2C(=O)CSC2c2ccc([N+](=O)[O-])cc2)cc1 (centres undefined),> 100,
CC(=O)c1ccc(NCc2cc(O)ccc2O)cc1,33,
CN(C(=O)C1=CCC2(CC1)OCCO2)c1ccccc1OS(=O)(=O)C(F)(F)F,> 100,
CC(C)(C)NC(NC(C)(C)C)=C(/C=C(/Cl)[N+](=O)[O-])[N+](=O)[O-],> 100,
O=C(Cc1ccc(/C=C/C(=O)c2ncc[nH]2)cc1)Nc1cc(F)c(F)c(F)c1,7.23,3.89

# Tested on: BT-549 breast
# Assay: inhibition of tumour cell growth, NCI panel, 48 h
Compound,GI50 [µM],TGI [µM]
O=C(Cc1ccc(/C=C/C(=O)c2ncc[nH]2)cc1)Nc1cc(F)c(F)c(F)c1,3.37,6.74

# Tested on: CAKI-1 renal
# Assay: inhibition of tumour cell growth, NCI panel, 48 h
Compound,TGI [µM],GI50 [µM]
CN(CC(=O)O)c1ncc2c(n1)-c1ccccc1SC2,> 100,
CC(=O)c1ccc(NCc2cc(O)ccc2O)cc1,34.6,
CN(C(=O)C1=CCC2(CC1)OCCO2)c1ccccc1OS(=O)(=O)C(F)(F)F,> 100,
CC(C)(C)NC(NC(C)(C)C)=C(/C=C(/Cl)[N+](=O)[O-])[N+](=O)[O-],> 100,
O=C(Cc1ccc(/C=C/C(=O)c2ncc[nH]2)cc1)Nc1cc(F)c(F)c(F)c1,7.05,3.68

# Tested on: CCRF-CEM leukemia
# Assay: inhibition of tumour cell growth, NCI panel, 48 h
Compound,TGI [µM],GI50 [µM]
CN(CC(=O)O)c1ncc2c(n1)-c1ccccc1SC2,> 100,
CC(=O)Nc1ccc(C(=O)NN2C(=O)CSC2c2ccc([N+](=O)[O-])cc2)cc1 (centres undefined),> 100,
CC(=O)c1ccc(NCc2cc(O)ccc2O)cc1,> 100,
CN(C(=O)C1=CCC2(CC1)OCCO2)c1ccccc1OS(=O)(=O)C(F)(F)F,> 100,
CC(C)(C)NC(NC(C)(C)C)=C(/C=C(/Cl)[N+](=O)[O-])[N+](=O)[O-],> 100,
O=C(Cc1ccc(/C=C/C(=O)c2ncc[nH]2)cc1)Nc1cc(F)c(F)c(F)c1,13.9,2.79

# Tested on: COLO 205 colon
# Assay: inhibition of tumour cell growth, NCI panel, 48 h
Compound,TGI [µM],GI50 [µM]
CN(CC(=O)O)c1ncc2c(n1)-c1ccccc1SC2,> 100,
CC(=O)Nc1ccc(C(=O)NN2C(=O)CSC2c2ccc([N+](=O)[O-])cc2)cc1 (centres undefined),> 100,
CC(=O)c1ccc(NCc2cc(O)ccc2O)cc1,43.8,
CN(C(=O)C1=CCC2(CC1)OCCO2)c1ccccc1OS(=O)(=O)C(F)(F)F,> 100,
CC(C)(C)NC(NC(C)(C)C)=C(/C=C(/Cl)[N+](=O)[O-])[N+](=O)[O-],60.3,
O=C(Cc1ccc(/C=C/C(=O)c2ncc[nH]2)cc1)Nc1cc(F)c(F)c(F)c1,9.4,4.08

# Tested on: DU-145 prostate
# Assay: inhibition of tumour cell growth, NCI panel, 48 h
Compound,TGI [µM],GI50 [µM]
CN(CC(=O)O)c1ncc2c(n1)-c1ccccc1SC2,> 100,
CC(=O)Nc1ccc(C(=O)NN2C(=O)CSC2c2ccc([N+](=O)[O-])cc2)cc1 (centres undefined),> 100,
CC(=O)c1ccc(NCc2cc(O)ccc2O)cc1,58,
CN(C(=O)C1=CCC2(CC1)OCCO2)c1ccccc1OS(=O)(=O)C(F)(F)F,> 100,
CC(C)(C)NC(NC(C)(C)C)=C(/C=C(/Cl)[N+](=O)[O-])[N+](=O)[O-],> 100,
O=C(Cc1ccc(/C=C/C(=O)c2ncc[nH]2)cc1)Nc1cc(F)c(F)c(F)c1,7.08,3.37

# Tested on: EKVX NSCLC
# Assay: inhibition of tumour cell growth, NCI panel, 48 h
Compound,TGI [µM],GI50 [µM]
CN(CC(=O)O)c1ncc2c(n1)-c1ccccc1SC2,> 100,
CC(=O)Nc1ccc(C(=O)NN2C(=O)CSC2c2ccc([N+](=O)[O-])cc2)cc1 (centres undefined),> 100,
CC(=O)c1ccc(NCc2cc(O)ccc2O)cc1,> 100,
CN(C(=O)C1=CCC2(CC1)OCCO2)c1ccccc1OS(=O)(=O)C(F)(F)F,> 100,
CC(C)(C)NC(NC(C)(C)C)=C(/C=C(/Cl)[N+](=O)[O-])[N+](=O)[O-],> 100,
O=C(Cc1ccc(/C=C/C(=O)c2ncc[nH]2)cc1)Nc1cc(F)c(F)c(F)c1,> 25,8.45

# Tested on: HCC-2998 colon
# Assay: inhibition of tumour cell growth, NCI panel, 48 h
Compound,TGI [µM],GI50 [µM]
CC(=O)Nc1ccc(C(=O)NN2C(=O)CSC2c2ccc([N+](=O)[O-])cc2)cc1 (centres undefined),> 100,
CN(C(=O)C1=CCC2(CC1)OCCO2)c1ccccc1OS(=O)(=O)C(F)(F)F,> 100,
CC(C)(C)NC(NC(C)(C)C)=C(/C=C(/Cl)[N+](=O)[O-])[N+](=O)[O-],> 100,
O=C(Cc1ccc(/C=C/C(=O)c2ncc[nH]2)cc1)Nc1cc(F)c(F)c(F)c1,7.03,3.57

# Tested on: HCT-116 colon
# Assay: inhibition of tumour cell growth, NCI panel, 48 h
Compound,TGI [µM],GI50 [µM]
CN(CC(=O)O)c1ncc2c(n1)-c1ccccc1SC2,> 100,
CC(=O)Nc1ccc(C(=O)NN2C(=O)CSC2c2ccc([N+](=O)[O-])cc2)cc1 (centres undefined),> 100,
CC(=O)c1ccc(NCc2cc(O)ccc2O)cc1,37.4,
CN(C(=O)C1=CCC2(CC1)OCCO2)c1ccccc1OS(=O)(=O)C(F)(F)F,> 100,
CC(C)(C)NC(NC(C)(C)C)=C(/C=C(/Cl)[N+](=O)[O-])[N+](=O)[O-],> 100,
O=C(Cc1ccc(/C=C/C(=O)c2ncc[nH]2)cc1)Nc1cc(F)c(F)c(F)c1,5.38,2.04

# Tested on: HCT-15 colon
# Assay: inhibition of tumour cell growth, NCI panel, 48 h
Compound,TGI [µM],GI50 [µM]
CN(CC(=O)O)c1ncc2c(n1)-c1ccccc1SC2,> 100,
CC(=O)Nc1ccc(C(=O)NN2C(=O)CSC2c2ccc([N+](=O)[O-])cc2)cc1 (centres undefined),> 100,
CC(=O)c1ccc(NCc2cc(O)ccc2O)cc1,> 100,
CN(C(=O)C1=CCC2(CC1)OCCO2)c1ccccc1OS(=O)(=O)C(F)(F)F,> 100,
CC(C)(C)NC(NC(C)(C)C)=C(/C=C(/Cl)[N+](=O)[O-])[N+](=O)[O-],> 100,
O=C(Cc1ccc(/C=C/C(=O)c2ncc[nH]2)cc1)Nc1cc(F)c(F)c(F)c1,8.25,2.39

# Tested on: HL-60(TB) leukemia
# Assay: inhibition of tumour cell growth, NCI panel, 48 h
Compound,TGI [µM],GI50 [µM]
CN(CC(=O)O)c1ncc2c(n1)-c1ccccc1SC2,> 100,
CC(=O)c1ccc(NCc2cc(O)ccc2O)cc1,76.9,
CN(C(=O)C1=CCC2(CC1)OCCO2)c1ccccc1OS(=O)(=O)C(F)(F)F,> 100,
CC(C)(C)NC(NC(C)(C)C)=C(/C=C(/Cl)[N+](=O)[O-])[N+](=O)[O-],53.5,
O=C(Cc1ccc(/C=C/C(=O)c2ncc[nH]2)cc1)Nc1cc(F)c(F)c(F)c1,11.2,4.28

# Tested on: HOP-62 NSCLC
# Assay: inhibition of tumour cell growth, NCI panel, 48 h
Compound,TGI [µM],GI50 [µM]
CC(=O)Nc1ccc(C(=O)NN2C(=O)CSC2c2ccc([N+](=O)[O-])cc2)cc1 (centres undefined),> 100,
CC(=O)c1ccc(NCc2cc(O)ccc2O)cc1,42,
CN(C(=O)C1=CCC2(CC1)OCCO2)c1ccccc1OS(=O)(=O)C(F)(F)F,> 100,
CC(C)(C)NC(NC(C)(C)C)=C(/C=C(/Cl)[N+](=O)[O-])[N+](=O)[O-],> 100,
O=C(Cc1ccc(/C=C/C(=O)c2ncc[nH]2)cc1)Nc1cc(F)c(F)c(F)c1,8.12,3.71
